This assay concerns the target LMPTP-A (Low Molecular Weight Protein Tyrosine Phosphatase-A) enzyme (Homo sapiens (Human), UniProt P24666). Kind of assay: LMPTP primary screening / LMPTP (OMFP) enzyme inhibition assay, fluorescence intensity. The conditions noted are these: LMPTP-A, OMFP substrate, method of Example 2; read-out: IC50. It is filed as biochemical. Here is the method: This assay attempts to identify inhibitors of the LMPTP-A (Low Molecular Weight Protein Tyrosine Phosphatase-A) enzyme. It is run in 1536-well format and is measured via fluorescence intensity.
A listing of materials is provided: • Item, source, catalog no. • LMPTP-A Enzyme Stock Solution (4.22 mg/ml or 206.8 μM), SBMRI Protein Facility, • N/A • OMFP, Sigma, M2629-100MG • Bis-Tris pH 6.0, Fisher Sci, BP301-100 • Triton-X 100, Sigma, T9284 • DTT, Sigma, D9779 • Mol. Grade Water, Mediatech, Inc., 46-000-CM • 1536-well black High base opaque bottom plate, Nexus Biosystems, 00019120
Final assay conditions are: • 0.625 nM LMPTP-A Enzyme • 400 μM OMFP • 50 mM Bis-Tris pH 6.0 • 1 mM DTT • 0.01% Triton-X 100 • 20 μM test compound • 3% DMSO (2% from substrate and 1% from compounds) • 6 μL reaction volume • 50 minutes incubation at room temp
Assay Procedure • 1. Prepare Reagents as described in section F. Recipe. • 2. Using LabCyte Echo, transfer 60 nL from 2 mM test compound source plate into assay plate Col. 5-48 (final concentration of test compounds is 20 μM). 60 nL of DMSO should be transferred to col. 1-4 for positive and negative control wells. • 3. Spin plates at 1000 rpm for 1 minute in centrifuge. • 4. […] Using the Bioraptr, add 3 μL/well of enzyme solution to col. 3-48. • 6. Using the Bioraptr, add 3 μL/well of substrate solution to col. 1-48. • 7. Spin plates at 1000 rpm for 1 minute in centrifuge. • 8. Incubate plates in the dark at room temperature for 50 minutes. • 9. Read plates on PerkinElmer Viewlux using a FI protocol.
LMPTP-A (Low Molecular Weight Protein Tyrosine Phosphatase-A) enzyme, sequence (P24666 whole entry): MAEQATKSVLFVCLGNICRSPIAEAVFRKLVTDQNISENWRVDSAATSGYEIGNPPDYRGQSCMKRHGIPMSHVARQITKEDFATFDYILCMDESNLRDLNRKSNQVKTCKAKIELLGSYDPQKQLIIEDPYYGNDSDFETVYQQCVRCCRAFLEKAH
Consider `CN(C)c1cc(-c2ccccc2C(F)(F)F)nc2ccccc12` [Compound D2, N,N-dimethyl-2-(2-(trifluoromethyl)phenyl)quinolin-4-amine], for which the IC50 was 801 to 5000 nM.
In the case of `CN(C)Cc1cccc(Nc2cc(-c3ccc(C(N)=O)cc3)nc3ccccc23)c1` [Compound I4, 4-[4-({3-[(dimethylamino)methyl]phenyl}amino)-2-quinolyl]benzamide], the IC50 is over 5000 nM.
Then `FC(F)(F)Oc1ccccc1-c1cc(NCCCN2CCCCC2)c2ccccc2n1` [Compound G2, (3-Piperidin-1-yl-propyl)-[2-(2-trifluoromethoxy-phenyl)-quinolin-4-yl]-amine], with 200 to 800 nM.
With `CC(=O)Nc1ccc(-c2cc(NCCCN3CCCCC3)c3ccccc3n2)cc1C(F)(F)F` [Compound I77] the figure was 801 to 5000 nM.
With `COc1ccc(-c2cc(Nc3cccc(CN4CCOCC4)c3)c3ccccc3n2)cc1` [Compound G55, [2-(4-methoxyphenyl)(4-quinolyl)][3-(morpholin-4-ylmethyl)phenyl]amine] the figure was 200 to 800 nM.
With `FC(F)(F)COc1ccccc1-c1cc(NCCCN2CCCCC2)c2ccccc2n1` [Compound I131], the IC50 was in the range of 801 to 5000 nM.
Then `COc1ccc(-c2cc(Nc3ccnnc3)c3ccccc3n2)cc1` [Compound G71, [2-(4-methoxyphenyl)(4-quinolyl)]pyridazin-4-ylamine], with 801 to 5000 nM; and `N#CCCNC(=O)c1ccc(-c2cc(NCCCN3CCCCC3)c3ccccc3n2)cc1` [Compound I265], with 200 to 800 nM; and `CC(=O)Nc1cccc(-c2cc(NCCCN3CCCCC3)c3ccccc3n2)c1` [Compound I118], with 801 to 5000 nM.
With `c1ccc2c(NCCCN3CCCCC3)cc(-c3ccc4scnc4c3)nc2c1` [Compound I224] the figure was 801 to 5000 nM.
Then `Fc1c(Cl)cccc1-c1cc(NCCCN2CCCCC2)c2ccccc2n1` [Compound I238], with 801 to 5000 nM; and `CCN(CC)S(=O)(=O)c1ccccc1-c1cc(NCCCN2CCCCC2)c2ccccc2n1` [Compound I240], with over 5000 nM; and `COc1ccc(-c2cc(NCc3ccc(CN4CCCCC4)cc3)c3ccccc3n2)cc1` [Compound I210, [2-(4-methoxyphenyl)(4-quinolyl)]{[4-(piperidylmethyl)phenyl]methyl}amine], with 801 to 5000 nM.
On to `Fc1cc(Cl)ccc1-c1cc(NCCCN2CCCCC2)c2ccccc2n1` [Compound I126], for which the IC50 fell in the range of 200 to 800 nM.
Then `COc1ccc(-c2cc(Nc3ccc(OC)nc3)c3ccccc3n2)cc1` [Compound G48, (6-methoxy(3-pyridyl))[2-(4-methoxyphenyl)(4-quinolyl)]amine], with 200 to 800 nM; and `CC(=O)NCc1ccc(-c2cc(NCCCN3CCCCC3)c3ccccc3n2)cc1` [Compound I255], with 200 to 800 nM.
With `COc1ccc(-c2cc(Nc3cncc(C)n3)c3ccccc3n2)cc1` [Compound G73, [2-(4-methoxyphenyl)(4-quinolyl)](6-methylpyrazin-2-yl)amine] the figure was 801 to 5000 nM.
Then `COc1ccc(-c2cc(Nc3cccc(CN4CCS(=O)(=O)CC4)c3)c3ccccc3n2)cc1` [Compound G62, 4-[(3-{[2-(4-methoxyphenyl)-4-quinolyl]amino}phenyl)methyl]-1,4-thiazaperhydroine-1,1-dione], with 801 to 5000 nM.
On to `O=C(c1ccc(-c2cc(NCCCN3CCCCC3)c3ccccc3n2)cc1)N1CCCCC1` [Compound I194, piperidyl 4-{4-[(3-piperidylpropyl)amino](2-quinolyl)}phenyl ketone], for which the IC50 was 801 to 5000 nM.
With `COc1ccc(-c2cc(NCc3cccc(OC)c3)c3ccccc3n2)cc1` [Compound G78, [2-(4-methoxyphenyl)(4-quinolyl)][(3-methoxyphenyl)methyl]amine], the 50% inhibitory concentration (IC50) lay within 801 to 5000 nM.
Then `CC(C)NC(=O)c1ccc(-c2cc(NCCCN3CCCCC3)c3ccccc3n2)cc1` [Compound I61, N-(methylethyl)(4-{4-[(3-piperidylpropyl)amino](2-quinolyl)}phenyl)carboxamide], with 801 to 5000 nM.
With `COc1ccc(-c2cc(Nc3ccc(C(F)(F)F)cc3)c3ccccc3n2)cc1` [Compound G42, [2-(4-methoxyphenyl)(4-quinolyl)][4-(trifluoromethyl)phenyl]amine] the figure was 801 to 5000 nM; with `O=C(NC1CCNCC1)c1ccc(-c2cc(NCCCN3CCCCC3)c3ccccc3n2)cc1` [Compound I196], 200 to 800 nM.
Then `CCCCOc1ncccc1-c1cc(NCCCN2CCCCC2)c2ccccc2n1` [Compound I93], with 801 to 5000 nM.
As to `Clc1ccc(-c2cc(NCCCN3CCCCC3)c3ccccc3n2)s1` [Compound I142], the IC50 is 801 to 5000 nM.
“[2-(5-bromo-2-methoxy(4-pyridyl))(4-quinolyl)](3-piperidylpropyl)amine [Compound I89]”: the concentration for half-maximal inhibition (IC50) was in the range of 801 to 5000 nM.
Take `c1ccc2c(NCCCN3CCCCC3)cc(-c3ccc4[nH]ccc4c3)nc2c1` [Compound I110]: the IC50 lay within 801 to 5000 nM.
Then `CN(C)c1cc(-c2ccc[nH]2)nc2ccccc12` [Compound G23, Dimethyl-[2-(1H-pyrrol-2-yl)-quinolin-4-yl]-amine], with over 5000 nM; and “{2-[3-chloro-2-(phenylmethoxy)(4-pyridyl)](4-quinolyl)}(3-piperidylpropyl)amine [Compound I88]”, with 801 to 5000 nM.
Then `CN(C)C(=O)c1ccc(-c2cc(NCCCN3CCCCC3)c3ccccc3n2)cc1` [Compound I72], with 801 to 5000 nM.
With `N#CCCNC(=O)c1ccc(-c2cc(NCCCN3CCCCC3)c3ccccc3n2)cc1` [Compound I59] the figure was 200 to 800 nM; with `Fc1cc(F)c(-c2cc(NCCCN3CCCCC3)c3ccccc3n2)cc1F` [Compound I86], 801 to 5000 nM; with `c1ccc2c(NCCCN3CCCCC3)cc(-c3ccc4sccc4c3)nc2c1` [Compound I247], 200 to 800 nM.
`COc1cccc(F)c1-c1cc(NCCCN2CCCCC2)c2ccccc2n1` [Compound I164]: the IC50 was in the range of 801 to 5000 nM.
Then `COc1ccc(-c2cc(NCCc3ccc(F)cc3)c3ccccc3n2)cc1` [Compound G87, [2-(4-fluorophenyl)ethyl][2-(4-methoxyphenyl)(4-quinolyl)]amine], with 801 to 5000 nM; and `Cc1cc(Cl)ccc1-c1cc(NCCCN2CCCCC2)c2ccccc2n1` [Compound I134], with 801 to 5000 nM.
Then `Fc1ccc(-c2cc(NCCCN3CCCCC3)c3ccccc3n2)c(C(F)(F)F)c1` [Compound I122], with 801 to 5000 nM.
Then `CCN1CCC(Cc2ccc(Nc3cc(-c4ccc(OC)cc4)nc4ccccc34)cc2)CC1` [Compound I33, {4-[(1-ethyl(4-piperidyl))methyl]phenyl}[2-(4-methoxyphenyl)(4-quinolyl)]amine], with 801 to 5000 nM; and `CCNC(=O)c1ccc(-c2cc(NCCCN3CCCCC3)c3ccccc3n2)cc1F` [Compound I229], with 801 to 5000 nM.
Consider `COc1cccc(OC)c1-c1cc(NCCCN2CCCCC2)c2ccccc2n1` [Compound I172], for which the IC50 was over 5000 nM.
With `Fc1ccc(Nc2cc(-c3ccccc3C(F)(F)F)nc3ccccc23)cc1` [Compound G34, (4-Fluoro-phenyl)-[2-(2-trifluoromethyl-phenyl)-quinolin-4-yl]-amine] the figure was 801 to 5000 nM; with `COc1ccc(-c2cc(NCCCN3CCCCC3)c3cc(F)ccc3n2)cc1` [Compound G30, [6-Fluoro-2-(4-methoxy-phenyl)-quinolin-4-yl]-(3-piperidin-1-yl-propyl)-amine], 801 to 5000 nM.
With `O=C1Cc2ccc(-c3cc(NCCCN4CCCCC4)c4ccccc4n3)cc2N1` [Compound I221], the IC50 was in the range of 801 to 5000 nM.
Then `CCN(CC)C(=O)c1ccc(-c2cc(NCCCN3CCCCC3)c3ccccc3n2)cc1` [Compound I1, N,N-diethyl-4-(4-((3-(piperidin-1-yl)propyl)amino)quinolin-2-yl)benzamide], with 200 to 800 nM; and “(3-piperidylpropyl)(2-(3-pyridyl)(4-quinolyl))amine [Compound I147]”, with 801 to 5000 nM.
Then `FC(F)(F)Oc1ccccc1-c1cc(NCCCC2CCCNC2)c2ccccc2n1` (stereo not shown) [Compound I166, (3-piperidylpropyl){2-[2-(trifluoromethoxy)phenyl](4-quinolyl)}amine], with 200 to 800 nM; and `Cc1nc2ccc(-c3cc(NCCCN4CCCCC4)c4ccccc4n3)cc2s1` [Compound I248], with 801 to 5000 nM.
Then `Fc1cc(Cl)ccc1-c1cc(NCCCc2cccnc2)c2ccccc2n1` [Compound I204, [2-(4-chloro-2-fluorophenyl)(4-quinolyl)](3-(3-pyridyl)propyl)amine], with 801 to 5000 nM; and `FC(F)(F)Oc1ccc(-c2cc(NCCCN3CCCCC3)c3ccccc3n2)cc1` [Compound G4, (3-Piperidin-1-yl-propyl)-[2-(4-trifluoromethoxy-phenyl)-quinolin-4-yl]-amine], with 801 to 5000 nM.

In general, IC50 refers to the concentration that gives 50% inhibition.

Source of the values: patent US10626094B2 (La Jolla Institute of Allergy & Immunology, priority 2014, dated 2020).
